Earlier results, collected in US8399704B2, “Methods for salt production” (Colgate-Palmolive Company, priority 2008, dated 2013).

Conditions: room temperature, natural partial pressure (3.5×10^−4 atmosphere)

- maximum concentration of carbon dioxide in water: about 1.2×10^−5 M
SMILES: O=C=O [Carbon dioxide]
